Values of other authors in PubChem BioAssay AID1259409 (Chemical Carcinogenesis Research Information System (CCRIS), 2018).

System: rodent chemically induced tumor inhibition, incidence and multiplicity
Assay: CCRIS tumor inhibitor studies
Settings: Route [Inhibitor]: ORAL, Promoter: NONE USED

Compound: CC1=C(/C=C/C(C)=C/C=C/C(C)=C/C(=O)Nc2ccc(O)cc2)C(C)(C)CCC1
- tumour outcome (control, treated, inhibition, significance) (Carcinogen: N-NITROSOBIS(2-OXYPROPYL)AMINE, 60599-38-4, Dose [Inhibitor]: 0.05, 0.1 OR 0.2 MILLIMOLAR/KG DIET FOR 32 WK STARTING 1 WK AFTER THE CARCINOGEN DOSE (STUDY DURATION: 33 WK), Species: HAMSTER, Strain/Sex: SYRIAN/MALE, Target Tissue: Type of Lesion: LUNG: ADENOMA, Dose [Carcinogen]: 40 MG/KG ONCE): 1/12 (8%), 2/21 (10%), -25%, not significant
- tumour outcome (control, treated, inhibition, significance) (Carcinogen: N-NITROSOBIS(2-OXYPROPYL)AMINE, 60599-38-4, Dose [Inhibitor]: 0.05, 0.1 OR 0.2 MILLIMOLAR/KG DIET FOR 32 WK STARTING 1 WK AFTER THE CARCINOGEN DOSE (STUDY DURATION: 33 WK), Species: HAMSTER, Strain/Sex: SYRIAN/MALE, Target Tissue: Type of Lesion: PANCREAS: ADENOMA, Dose [Carcinogen]: 40 MG/KG ONCE): 12/12 (100%), 21/21 (100%), 0%, not significant
- tumour outcome (control, treated, inhibition, significance) (Carcinogen: N-NITROSOBIS(2-OXYPROPYL)AMINE, 60599-38-4, Dose [Inhibitor]: 0.05, 0.1 OR 0.2 MILLIMOLAR/KG DIET FOR 32 WK STARTING 1 WK AFTER THE CARCINOGEN DOSE (STUDY DURATION: 33 WK), Species: HAMSTER, Strain/Sex: SYRIAN/MALE, Target Tissue: Type of Lesion: PANCREAS: CARCINOMA, Dose [Carcinogen]: 40 MG/KG ONCE): 6/12 (50%), 13/21 (62%), -24%, not significant
- tumour outcome (control, treated, inhibition, significance) (Carcinogen: NONE USED, Dose [Inhibitor]: 1 MILLIMOLAR IN DIET DAILY FOR 39 WK STARTING AT 2 MO OF AGE THROUGH THE END OF THE STUDY (STUDY DURATION: 39 WK), Species: MOUSE, Strain/Sex: C3H/FEMALE, Target Tissue: Type of Lesion: MAMMARY GLAND: ADENOCARCINOMA): 83/98 (85%), 71/100 (71%), 16%, not significant
- tumour outcome (control, treated, inhibition, significance) (Carcinogen: NONE USED, Dose [Inhibitor]: 1 MILLIMOLAR IN DIET FOR 14 WK STARTING AT 4-6 MO OF AGE THROUGH THE END OF THE STUDY (STUDY DURATION: 14 WK), Species: MOUSE, Strain/Sex: C3H/FEMALE, Target Tissue: Type of Lesion: MAMMARY GLAND: ADENOCARCINOMA): 54/78 (69%), 62/78 (80%), -16%, not significant
- tumour outcome (control, treated, inhibition, significance) (Carcinogen: NONE USED, Dose [Inhibitor]: 1 MILLIMOLAR IN DIET FOR 39 WK STARTING AT 2 MO OF AGE THROUGH THE END OF THE STUDY (STUDY DURATION: 39 WK), Species: MOUSE, Strain/Sex: C3H/FEMALE, Target Tissue: Type of Lesion: MAMMARY GLAND: ADENOCARCINOMA): 83/98 (85%), 71/100 (71%), 16%, not significant
- tumour outcome (control, treated, inhibition, significance) (Carcinogen: NONE USED, Dose [Inhibitor]: 1.0 MM/KG IN DIET DAILY FOR 14 WK STARTING AT 4-6 MO OF AGE THROUGH THE END OF THE STUDY (STUDY DURATION: 14 WK), Species: MOUSE, Strain/Sex: C3H/FEMALE, Target Tissue: Type of Lesion: MAMMARY GLAND: ADENOCARCINOMA): 54/78 (69%), 62/78 (80%), -16%, not significant
- tumour outcome (control, treated, inhibition, significance) (Carcinogen: NONE USED, Dose [Inhibitor]: 783 MG/KG DIET DAILY FOR 54 WK (STUDY DURATION: 54 WK), Species: RAT, Strain/Sex: ACI/MALE, Target Tissue: Type of Lesion: ADRENAL GLAND: TUMOR): 15/43 (35%), 18/43 (42%), -20%, not significant
- tumour outcome (control, treated, inhibition, significance) (Carcinogen: NONE USED, Dose [Inhibitor]: 783 MG/KG DIET DAILY FOR 54 WK (STUDY DURATION: 54 WK), Species: RAT, Strain/Sex: ACI/MALE, Target Tissue: Type of Lesion: PANCREAS: ADENOMA): 1/40 (3%), 5/44 (11%), -267%, not significant
- tumour outcome (control, treated, inhibition, significance) (Carcinogen: NONE USED, Dose [Inhibitor]: 783 MG/KG DIET DAILY FOR 54 WK (STUDY DURATION: 54 WK), Species: RAT, Strain/Sex: ACI/MALE, Target Tissue: Type of Lesion: PITUITARY GLAND: ADENOMA OR CARCINOMA): 20/39 (51%), 19/42 (45%), 12%, not significant
- tumour outcome (control, treated, inhibition, significance) (Carcinogen: NONE USED, Dose [Inhibitor]: 783 MG/KG DIET DAILY FOR 54 WK (STUDY DURATION: 54 WK), Species: RAT, Strain/Sex: ACI/MALE, Target Tissue: Type of Lesion: PROSTATE GLAND: ADENOMA OR CARCINOMA): 19/44 (43%), 11/40 (28%), 35%, not significant
- tumour outcome (control, treated, inhibition, significance) (Carcinogen: NONE USED, Dose [Inhibitor]: 783 MG/KG DIET DAILY FOR 54 WK (STUDY DURATION: 54 WK), Species: RAT, Strain/Sex: ACI/MALE, Target Tissue: Type of Lesion: SKIN: TUMORS): 12/45 (27%), 3/45 (7%), 74%, p<0.025
- tumour outcome (control, treated, inhibition, significance) (Carcinogen: NONE USED, Dose [Inhibitor]: 783 MG/KG DIET DAILY FOR 54 WK (STUDY DURATION: 54 WK), Species: RAT, Strain/Sex: ACI/MALE, Target Tissue: Type of Lesion: TESTES: INTERSTITIAL CELL TUMOR): 21/45 (47%), 24/44 (55%), -17%, not significant
